Results as given in patent US20230257372A1 (CHONG KUN DANG PHARMACEUTICAL CORP., priority 2020, published 2023).

Legend:
human recombinant HDAC1 = target: T1, human recombinant HDAC1 (Homo sapiens, UniProt Q13547); assay: HDAC1 enzyme activity inhibition (HDAC Fluorimetric Drug Discovery Kit); format: biochemical; conditions: human recombinant HDAC1, Fluor de Lys substrate, 30° C. 60 minutes; read-out: HDAC1
T1 construct: purchased Enzo Life Science, Inc. BML-SE456
Procedure, shortened: (§1)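 Fluorescence from a Fluor de Lys developer step (30 minutes) reports residual deacetylation after a 60-minute, 30° C reaction of […] enzyme with 10 μM substrate and 5-fold compound dilutions.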

human recombinant HDAC6 = target: T2, human recombinant HDAC6 (Homo sapiens, UniProt Q9UBN7); assay: HDAC6 enzyme activity inhibition (HDAC Fluorimetric Drug Discovery Kit); format: biochemical; conditions: for HDAC6 selectivity (fold): HDAC6 over HDAC1; for IC50: human recombinant HDAC6, same protocol as HDAC1
T2 construct: purchased Calbiochem Inc. 382180
T2 sequence (Q9UBN7 1-1215): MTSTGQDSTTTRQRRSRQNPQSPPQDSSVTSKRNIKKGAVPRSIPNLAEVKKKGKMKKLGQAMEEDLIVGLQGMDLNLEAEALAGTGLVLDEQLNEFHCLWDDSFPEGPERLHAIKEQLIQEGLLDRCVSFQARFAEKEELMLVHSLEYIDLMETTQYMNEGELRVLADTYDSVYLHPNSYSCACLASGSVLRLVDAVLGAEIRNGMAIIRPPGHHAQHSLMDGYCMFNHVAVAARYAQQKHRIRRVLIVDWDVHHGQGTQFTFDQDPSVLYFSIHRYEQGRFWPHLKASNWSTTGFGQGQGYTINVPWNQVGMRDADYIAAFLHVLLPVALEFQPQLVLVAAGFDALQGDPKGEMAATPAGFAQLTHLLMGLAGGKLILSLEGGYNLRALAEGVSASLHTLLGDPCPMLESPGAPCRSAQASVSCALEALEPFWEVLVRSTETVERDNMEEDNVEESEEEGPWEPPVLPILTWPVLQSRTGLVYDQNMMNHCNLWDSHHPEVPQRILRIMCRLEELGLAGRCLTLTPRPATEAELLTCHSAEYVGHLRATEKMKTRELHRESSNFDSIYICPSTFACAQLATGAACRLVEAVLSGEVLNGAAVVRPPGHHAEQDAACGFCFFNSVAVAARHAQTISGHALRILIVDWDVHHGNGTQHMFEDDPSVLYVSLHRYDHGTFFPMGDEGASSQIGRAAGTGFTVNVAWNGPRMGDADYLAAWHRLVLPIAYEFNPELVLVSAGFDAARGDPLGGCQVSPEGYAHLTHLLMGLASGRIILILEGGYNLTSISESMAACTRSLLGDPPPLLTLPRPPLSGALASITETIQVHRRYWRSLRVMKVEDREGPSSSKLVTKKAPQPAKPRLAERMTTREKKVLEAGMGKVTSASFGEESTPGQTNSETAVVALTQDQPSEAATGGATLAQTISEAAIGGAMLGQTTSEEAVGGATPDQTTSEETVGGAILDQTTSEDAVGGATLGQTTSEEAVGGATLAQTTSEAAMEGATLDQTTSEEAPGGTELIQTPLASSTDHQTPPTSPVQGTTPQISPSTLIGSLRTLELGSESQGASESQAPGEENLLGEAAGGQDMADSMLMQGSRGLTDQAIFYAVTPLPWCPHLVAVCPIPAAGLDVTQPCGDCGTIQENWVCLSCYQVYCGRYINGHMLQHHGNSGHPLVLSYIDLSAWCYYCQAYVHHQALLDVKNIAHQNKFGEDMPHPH
Procedure, shortened: as §1

T1 sequence (Q13547 whole entry): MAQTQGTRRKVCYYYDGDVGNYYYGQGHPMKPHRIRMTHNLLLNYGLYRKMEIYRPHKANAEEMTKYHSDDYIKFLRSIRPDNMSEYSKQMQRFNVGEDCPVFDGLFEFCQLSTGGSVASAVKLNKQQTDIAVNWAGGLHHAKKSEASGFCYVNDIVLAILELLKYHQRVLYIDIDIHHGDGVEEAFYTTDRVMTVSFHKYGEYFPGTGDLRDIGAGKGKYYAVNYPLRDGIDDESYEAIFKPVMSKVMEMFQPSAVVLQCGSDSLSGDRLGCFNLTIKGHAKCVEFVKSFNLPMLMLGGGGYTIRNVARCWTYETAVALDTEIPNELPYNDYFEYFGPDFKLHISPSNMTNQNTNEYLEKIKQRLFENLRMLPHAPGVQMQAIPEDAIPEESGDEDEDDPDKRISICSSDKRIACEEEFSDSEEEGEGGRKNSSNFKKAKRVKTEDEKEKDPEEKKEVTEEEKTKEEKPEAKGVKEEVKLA

Row | Compound | IC50 (human recombinant HDAC1) [nM] | HDAC6 selectivity (fold) (human recombinant HDAC6) | IC50 (human recombinant HDAC6) [nM]
1 | Fc1cc(-c2nnc(C(F)F)o2)cnc1Cn1cc(-c2cccc(C3CCN(C4COC4)CC3)c2)nn1 [Compound 18871, 2-(difluoromethyl)-5-(5-fluoro-6-((4-(3-(1-(oxetan-3-yl)piperidin-4-yl)phenyl)-1H-1,2,3-triazol-1-yl)methyl)pyridin-3-yl)-1,3,4-oxadiazole] | > 50000 | 675 | 74
2 | CC(C)(C)OC(=O)N1CC(N2CCC(c3cccc(-c4cn(Cc5ncc(-c6nnc(C(F)F)o6)cc5F)nn4)c3)CC2)C1 [Compound 18872, tert-butyl 3-(4-(3-(1-((5-(5-(difluoromethyl)-1,3,4-oxadiazol-2-yl)-3-fluoropyridin-2-yl)methyl)-1H-1,2,3-triazol-4-yl)phenyl)piperidin-1-yl)azetidin-1-carboxylate] | > 50000 | 167 | 299
3 | CN1CC(N2CCC(c3cccc(-c4cn(Cc5ncc(-c6nnc(C(F)F)o6)cc5F)nn4)c3)CC2)C1 [Compound 18877, 2-(difluoromethyl)-5-(5-fluoro-6-((4-(3-(1-(1-methylazetidin-3-yl)piperidin-4-yl)phenyl)-1H-1,2,3-triazol-1-yl)methyl)pyridin-3-yl)-1,3,4-oxadiazole] | > 50000 | 367 | 136
4 | Fc1cc(-c2nnc(C(F)F)o2)cnc1Cn1cc(-c2cccc(C3CCN(C4CN(C5CCC5)C4)CC3)c2)nn1 [Compound 18878] | > 50000 | 429 | 116
5 | Fc1cc(-c2nnc(C(F)F)o2)cnc1Cn1cc(-c2cncc(CN3CCC3)c2)nn1 [Compound 18882, 2-(6-((4-(5-(azetidin-1-ylmethyl)pyridin-3-yl)-1H-1,2,3-triazol-1-yl)methyl)-5-fluoropyridin-3-yl)-5-(difluoromethyl)-1,3,4-oxadiazole] | > 50000 | 306 | 163
6 | C[C@@H]1CN(c2cccc(-c3cn(Cc4ncc(-c5nnc(C(F)F)o5)cc4F)nn3)c2)C[C@H](C)N1 [Compound 18893, 2-(difluoromethyl)-5-(6-((4-(3-((3R,5S)-3,5-dimethylpiperazin-1-yl)phenyl)-1H-1,2,3-triazol-1-yl)methyl)-5-fluoropyridin-3-yl)-1,3,4-oxadiazole] | > 50000 | 388 | 129
7 | Fc1cc(-c2nnc(C(F)F)o2)cnc1Cn1cc(-c2ccc3cc[nH]c3c2)nn1 [Compound 18918, 2-(6-((4-(1H-indol-6-yl)-1H-1,2,3-triazol-1-yl)methyl)-5-fluoropyridin-3-yl)-5-(difluoromethyl)-1,3,4-oxadiazole] | > 50000 | 1089 | 45.9
8 | Fc1cc(-c2nnc(C(F)F)o2)cnc1Cn1cc(-c2ccc3cn[nH]c3c2)nn1 [Compound 18919, 2-(6-((4-(1H-indazol-6-yl)-1H-1,2,3-triazol-1-yl)methyl)-5-fluoropyridin-3-yl)-5-(difluoromethyl)-1,3,4-oxadiazole] | > 50000 | 830 | 60.2
9 | Fc1cc(-c2nnc(C(F)F)o2)cnc1Cn1cc(-c2ccc3[nH]ncc3c2)nn1 [Compound 18920, 2-(6-((4-(1H-indazol-5-yl)-1H-1,2,3-triazol-1-yl)methyl)-5-fluoropyridin-3-yl)-5-(difluoromethyl)-1,3,4-oxadiazole] | > 50000 | 1190 | 42
10 | Fc1cc(-c2nnc(C(F)F)o2)cnc1Cn1cc(-c2cccc3[nH]ccc23)nn1 [Compound 18921, 2-(6-((4-(1H-indol-4-yl)-1H-1,2,3-triazol-1-yl)methyl)-5-fluoropyridin-3-yl)-5-(difluoromethyl)-1,3,4-oxadiazole] | > 50000 | 1592 | 31.4
11 | CN1CCN(c2cccc(-c3cn(Cc4ncc(-c5nnc(C(F)F)o5)cc4F)nn3)c2)CC1 [Compound 18924, 2-(difluoromethyl)-5-(5-fluoro-6-((4-(3-(4-methylpiperazin-1-yl)phenyl)-1H-1,2,3-triazol-1-yl)methyl)pyridin-3-yl)-1,3,4-oxadiazole] | > 50000 | 625 | 80
12 | CC(C)N1CCN(c2cccc(-c3cn(Cc4ncc(-c5nnc(C(F)F)o5)cc4F)nn3)c2)CC1 [Compound 18926] | > 50000 | 782 | 63.9
13 | Fc1cc(-c2cn(Cc3ncc(-c4nnc(C(F)F)o4)cc3F)nn2)ccc1CN1CCC1 [Compound 18947, 2-(6-((4-(4-(azetidin-1-ylmethyl)-3-fluorophenyl)-1H-1,2,3-triazol-1-yl)methyl)-5-fluoropyridin-3-yl)-5-(difluoromethyl)-1,3,4-oxadiazole] | > 50000 | 1262 | 39.6

The remaining lines, values ahead:

Row | IC50 (human recombinant HDAC1) [nM] | HDAC6 selectivity (fold) (human recombinant HDAC6) | IC50 (human recombinant HDAC6) [nM] | Compound
14 | > 50000 | 856 | 58.4 | Fc1cc(-c2cn(Cc3ncc(-c4nnc(C(F)F)o4)cc3F)nn2)ccc1CN1CCCC1 [Compound 18948, 2-(difluoromethyl)-5-(5-fluoro-6-((4-(3-fluoro-4-(pyrrolidin-1-ylmethyl)phenyl)-1H-1,2,3-triazol-1-yl)methyl)pyridin-3-yl)-1,3,4-oxadiazole]
15 | > 50000 | 759 | 65.8 | CN(C)Cc1ccc(-c2cn(Cc3ncc(-c4nnc(C(F)F)o4)cc3F)nn2)cc1F [Compound 18949, 1-(4-(1-((5-(5-(difluoromethyl)-1,3,4-oxadiazol-2-yl)-3-fluoropyridin-2-yl)methyl)-1H-1,2,3-triazol-4-yl)-2-fluorophenyl)-N,N-dimethylmethanamine]
16 | > 50000 | 570 | 87.6 | Fc1cc(-c2cn(Cc3ncc(-c4nnc(C(F)F)o4)cc3F)nn2)ccc1CN1CCCCC1 [Compound 18950, 2-(difluoromethyl)-5-(5-fluoro-6-((4-(3-fluoro-4-(piperidin-1-ylmethyl)phenyl)-1H-1,2,3-triazol-1-yl)methyl)pyridin-3-yl)-1,3,4-oxadiazole]
17 | > 50000 | 782 | 63.9 | C[C@@H]1CN(c2cccc(-c3cn(Cc4ncc(-c5nnc(C(F)F)o5)cc4F)nn3)c2)C[C@H](C)N1C [Compound 18961, 2-(difluoromethyl)-5-(5-fluoro-6-((4-(3-((3R,5S)-3,4,5-trimethylpiperazin-1-yl)phenyl)-1H-1,2,3-triazol-1-yl)methyl)pyridin-3-yl)-1,3,4-oxadiazole]
18 | > 50000 | 587 | 85.1 | CN1CCc2ccc(-c3cn(Cc4ncc(-c5nnc(C(F)F)o5)cc4F)nn3)cc2C1 [Compound 19002, 2-(difluoromethyl)-5-(5-fluoro-6-((4-(2-methyl-1,2,3,4-tetrahydroisoquinolin-7-yl)-1H-1,2,3-triazol-1-yl)methyl)pyridin-3-yl)-1,3,4-oxadiazole]
19 | > 50000 | 640 | 78.1 | Fc1cc(-c2nnc(C(F)F)o2)cnc1Cn1cc(-c2ccc3c(c2)CN(C2CCC2)CC3)nn1 [Compound 19004]
20 | > 50000 | 650 | 76.9 | CN1CCC(c2ccc(-c3cn(Cc4ncc(-c5nnc(C(F)F)o5)cc4F)nn3)cc2)CC1 [Compound 19087, 2-(difluoromethyl)-5-(5-fluoro-6-((4-(4-(1-methylpiperidin-4-yl)phenyl)-1H-1,2,3-triazol-1-yl)methyl)pyridin-3-yl)-1,3,4-oxadiazole]
21 | > 50000 | 639 | 78.2 | CN(C)Cc1cccc(-c2cn(Cc3ncc(-c4nnc(C(F)F)o4)cc3F)nn2)c1Cl [Compound 19088, 1-(2-chloro-3-(1-((5-(5-(difluoromethyl)-1,3,4-oxadiazol-2-yl)-3-fluoropyridin-2-yl)methyl)-1H-1,2,3-triazol-4-yl)phenyl)-N,N-dimethylmethanamine]
